Source: patent US8247211B2, “Glycopeptide antibiotics” (American Cyanamid Company, priority 2001, dated 2012)
≈ marks a conversion by molar mass, not a printed value.

Columns and labels:
Assay in all cases: In vitro antibacterial evaluation: minimum inhibitory concentration (MIC), broth dilution method
Assay type in all cases: cell-based
Enterococcus sp. = conditions: broth dilution, 5×10^5 CFU/mL, 18 hours at 35° C.
Description: (§1) The minimum inhibitory concentration (MIC), the lowest concentration of the antibiotic which inhibits growth of the test organism, is determined by the broth dilution method using Muller-Hinton II […] (Baltimore Biological Laboratories) following the recommendations of the National Committee for Clinical Laboratory Standards [Methods for dilution antimicrobial susceptibility tests for bacteria that grow aerobically, approved standard M7-A2, National Committee for Clinical Laboratory Standards, Villanova, Pa].
(§2) An inoculum level of 5×10^5 CFU/mL, and a range of antibiotic concentrations (64-0.06 μg/mL) is used. […] The test organisms include a spectrum of Gram-positive bacteria comprised of Staphylococcus sp., Streptococcus sp. and Enterococcus sp. These organisms include recent clinical isolates that are resistant to methicillin, penicillin and/or vancomycin.

Staphylococcus sp. = conditions: for MIC Staphylococcus aureus (ATCC 29213): strain ATCC 29213; for MIC Staphylococcus aureus (GC 1131): strain GC 1131; for MIC Staphylococcus aureus (GC 3051): strain GC 3051; for MIC Staphylococcus aureus (GC 3053): strain GC 3053; for MIC Staphylococcus aureus (GC 4541): strain GC 4541; for MIC Staphylococcus aureus (GC 4542): strain GC 4542; for MIC Staphylococcus aureus-SMITH (GC 4543): strain GC 4543; for MIC Staphylococcus aureus (GC 4544): strain GC 4544; for MIC Staphylococcus aureus (GC 4545): strain GC 4545; for MIC Staphylococcus haemolyticus (GC 4546): strain GC 4546; for MIC Coagulase Negative Staphylococcus (GC 4547): strain GC 4547; for MIC Coagulase Negative Staphylococcus (GC 4548): strain GC 4548; for MIC Coagulase Negative Staphylococcus (GC 4549): strain GC 4549; for MIC Coagulase Negative Staphylococcus (GC 4551): strain GC 4551; for MIC Coagulase Negative Staphylococcus (GC 6257): strain GC 6257
Description: as §1, §2

Streptococcus sp. = conditions: broth dilution, 5×10^5 CFU/mL, 18 hours at 35° C.
Description: as §1, §2

Escherichia coli = conditions: 5×10^5 CFU/mL, 18 hours at 35° C.
Description: as §1, §2

[1] = broth dilution, 18 hours at 35° C.

MIC Enterococccus avium (GC 4558) (Enterococcus sp.): 16 µg/mL (≈ 11.5 µM)
MIC Enterococccus faecalis (ATCC 29212) (Enterococcus sp.): 8 µg/mL (≈ 5.76 µM)
MIC Enterococccus faecalis (GC 2691) (Enterococcus sp.): 16 µg/mL (≈ 11.5 µM)
MIC Enterococccus faecalis (GC 3059) (Enterococcus sp.): 16 µg/mL (≈ 11.5 µM)
MIC Enterococccus faecalis (GC 4552) (Enterococcus sp.): 8 µg/mL (≈ 5.76 µM)
MIC Enterococccus faecalis (GC 4553) (Enterococcus sp.): 16 µg/mL (≈ 11.5 µM)
MIC Enterococccus faecalis (GC 4554) (Enterococcus sp.): 16 µg/mL (≈ 11.5 µM)
MIC Enterococccus faecalis (GC 6189) (Enterococcus sp.): 8 µg/mL (≈ 5.76 µM)
MIC Enterococccus faecium (GC 2243) (Enterococcus sp.): 8 µg/mL (≈ 5.76 µM)
MIC Enterococccus faecium (GC 4556) (Enterococcus sp.): 8 µg/mL (≈ 5.76 µM)
MIC Enterococccus faecium (GC 4557) (Enterococcus sp.): 8 µg/mL (≈ 5.76 µM)
MIC Enterococcus faecalis (GC 2242) (Enterococcus sp.): 8 µg/mL (≈ 5.76 µM)
MIC Staphylococcus aureus (ATCC 29213) (Staphylococcus sp.): 8 µg/mL (≈ 5.76 µM)
MIC Staphylococcus aureus (ATCC 29213) (Staphylococcus sp.; [1]): 8 µg/mL (≈ 5.76 µM)
MIC Staphylococcus aureus (GC 1131) (Staphylococcus sp.): 8 µg/mL (≈ 5.76 µM)
MIC Staphylococcus aureus (GC 1131) (Staphylococcus sp.; [1]): 8 µg/mL (≈ 5.76 µM)
MIC Staphylococcus aureus (GC 3051) (Staphylococcus sp.): 8 µg/mL (≈ 5.76 µM)
MIC Staphylococcus aureus (GC 3051) (Staphylococcus sp.; [1]): 8 µg/mL (≈ 5.76 µM)
MIC Staphylococcus aureus (GC 3053) (Staphylococcus sp.): 8 µg/mL (≈ 5.76 µM)
MIC Staphylococcus aureus (GC 3053) (Staphylococcus sp.; [1]): 8 µg/mL (≈ 5.76 µM)
MIC Staphylococcus aureus (GC 4541) (Staphylococcus sp.): 4 µg/mL (≈ 2.88 µM)
MIC Staphylococcus aureus (GC 4541) (Staphylococcus sp.; [1]): 4 µg/mL (≈ 2.88 µM)
MIC Staphylococcus aureus (GC 4542) (Staphylococcus sp.): 4 µg/mL (≈ 2.88 µM)
MIC Staphylococcus aureus (GC 4542) (Staphylococcus sp.; [1]): 4 µg/mL (≈ 2.88 µM)
MIC Staphylococcus aureus-SMITH (GC 4543) (Staphylococcus sp.; 18 hours at 35° C.): 4 µg/mL (≈ 2.88 µM)
MIC Staphylococcus aureus-SMITH (GC 4543) (Staphylococcus sp.; [1]): 4 µg/mL (≈ 2.88 µM)
MIC Staphylococcus aureus (GC 4544) (Staphylococcus sp.): 8 µg/mL (≈ 5.76 µM)
MIC Staphylococcus aureus (GC 4544) (Staphylococcus sp.; [1]): 8 µg/mL (≈ 5.76 µM)
MIC Staphylococcus aureus (GC 4545) (Staphylococcus sp.): 8 µg/mL (≈ 5.76 µM)
MIC Staphylococcus aureus (GC 4545) (Staphylococcus sp.; [1]): 8 µg/mL (≈ 5.76 µM)
MIC Coagulase Negative Staphylococcus (GC 4547) (Staphylococcus sp.): 8 µg/mL (≈ 5.76 µM)
MIC Coagulase Negative Staphylococcus (GC 4547) (Staphylococcus sp.; [1]): 8 µg/mL (≈ 5.76 µM)
MIC Coagulase Negative Staphylococcus (GC 4548) (Staphylococcus sp.): 4 µg/mL (≈ 2.88 µM)
MIC Coagulase Negative Staphylococcus (GC 4548) (Staphylococcus sp.; [1]): 4 µg/mL (≈ 2.88 µM)
MIC Coagulase Negative Staphylococcus (GC 4549) (Staphylococcus sp.): 4 µg/mL (≈ 2.88 µM)
MIC Coagulase Negative Staphylococcus (GC 4549) (Staphylococcus sp.; [1]): 4 µg/mL (≈ 2.88 µM)
MIC Coagulase Negative Staphylococcus (GC 4551) (Staphylococcus sp.): 8 µg/mL (≈ 5.76 µM)
MIC Coagulase Negative Staphylococcus (GC 4551) (Staphylococcus sp.; [1]): 8 µg/mL (≈ 5.76 µM)
MIC Coagulase Negative Staphylococcus (GC 6257) (Staphylococcus sp.): 4 µg/mL (≈ 2.88 µM)
MIC Coagulase Negative Staphylococcus (GC 6257) (Staphylococcus sp.; [1]): 4 µg/mL (≈ 2.88 µM)
MIC Streptococcus agalactiae (GC 4564) (Streptococcus sp.): 2 µg/mL (≈ 1.44 µM)
MIC Streptococcus pneumoniae (GC 1894) (Streptococcus sp.): 1 µg/mL (≈ 0.72 µM)
MIC Streptococcus pneumoniae (GC 4565) (Streptococcus sp.): 2 µg/mL (≈ 1.44 µM)
MIC Streptococcus pneumonine (ATCC 6301) (Streptococcus sp.): 1 µg/mL (≈ 0.72 µM)
MIC Streptococcus pyogenes (GC 4563) (Streptococcus sp.): 0.5 µg/mL (≈ 0.36 µM)
MIC Escherichia coli (ATCC 25922) (Escherichia coli): >64 µg/mL
MIC Escherichia coli (GC 4559) (Escherichia coli): >64 µg/mL
MIC Escherichia coli (GC 4560) (Escherichia coli): 8 µg/mL (≈ 5.76 µM)
Compound: CC(C)=CCCC1OCC2OC(OC3C(CO)OC(Oc4ccc(CC5NC(=O)C(C(C)c6ccccc6)NC(=O)CNC(=O)C(CO)NC(=O)C(C(O)C6CNC(=N)N6C6OC(CO)C(O)C(O)C6O)NC(=O)C(C(O)C6CNC(=N)N6)NC5=O)cc4)C(O)C3O)C(O)C(O)C2O1 (stereo not drawn) [Example 123, Cyclo[glycyl-β-methylphenylalanyl-O-[4-O-[4,6-O-[5-methylhex-4-en-1-ylidene)hexopyranosyl]hexopyranosyl]tyrosyl-3-[2-iminoimidazolidin-4-yl)seryl-3-(3-hexopyranosyl-2-iminoimidazolidin-4-yl)serylseryl]]
MIC Staphylococcus haemolyticus (GC 4546) (Staphylococcus sp.): 8 µg/mL (≈ 5.76 µM)
MIC Staphylococcus haemolyticus (GC 4546) (Staphylococcus sp.; [1]): 8 µg/mL (≈ 5.76 µM)
